Reference: patent publication US20110060036A1, “Branched Multifunctional Nanoparticle Conjugates And Their Use” (EMORY UNIVERSITY, priority 2008, published 2011)

Columns and labels:
MDA-MB-231 tumor = assay: Therapeutic efficacy test in MDA-MB-231 orthotopic tumor model; format: in vivo, athymic nude mice; conditions: for therapeutic outcome in small tumors: tumors about 30 mm^3, i.v. weekly; for therapeutic outcome in small tumors / antitumor effect in large tumors: TX equivalent 30 mg/Kg; for antitumor effect in large tumors: tumors about 120 mm^3, i.v., 4 weekly injections
Description: The MDA-MB-231 tumor model was used for testing the in-vivo therapeutic efficacy of these polymer-drug conjugates. MDA-MB-231 tumors were developed in the mammary fat pad of athymic nude mice as discussed above. When the average sizes of the tumor reached 100-120 or ˜30 mm^3, mice were randomly sorted into 4 groups (6 mice each group). A paclitaxel equivalent of 30 mg/kg of free drug and polymer drug conjugates were administered i.v. and the injections were performed weekly. Tumor sizes were measured in two dimensions with calipers and volume was calculated using the following formula: Tumor volume=(length×width^2)/2. The end-point size of this tumor model was set at 1,500 mm^3, 20% weight loss or severe ulceration (more than 20% of tumor areas).
Following the in-vivo blood circulation and tumor targeting tests, the anti-tumor activity of these nanoparticles was evaluated in comparison with free TX using the MDA-MB-231 orthotopic tumor model with two serials trials of tumor sizes of about 120 and 30 mm^3.

tumor cell cultures = conditions: cited from earlier work
[1] = room temperature (25 degrees C.); cited from earlier work

What does the source list for `CC(=O)O[C@H]1C(=O)[C@@]2(C)[C@H]([C@H](OC(=O)c3ccccc3)[C@]3(O)C[C@H](OC(=O)[C@H](O)[C@@H](NC(=O)c4ccccc4)c4ccccc4)C(C)=C1C3(C)C)[C@]1(OC(C)=O)CO[C@@H]1C[C@@H]2O` [TX, paclitaxel]?
histological analysis of tumor sections: Ki67 expression level (MDA-MB-231 tumor; large tumors, TX equivalent 30 mg/Kg weekly): little difference compared to the control; therapeutic outcome in small tumors (MDA-MB-231 tumor): delayed response to the treatment; antitumor effect in large tumors (MDA-MB-231 tumor): little effect on tumor inhibition

For calicheamicin, which “IC50 for inhibition of growth of tumor cell cultures” value (“IC50 for inhibition” for short) (tumor cell cultures) is on record?
The value was “low picomolar range”.

Which “IC50 for inhibition” value (tumor cell cultures) does the source give for esperamicin here?
Its value is “low picomolar range”.

Which “IC50 for inhibition” value (tumor cell cultures) does the source give for dynemicin here?
The value was “low picomolar range”.

For `COc1cccc2c1C(=O)c1c(O)c3c(c(O)c1C2=O)C[C@@](O)(C(=O)CO)C[C@@H]3O[C@H]1C[C@H](N)[C@H](O)[C@H](C)O1` [doxorubicin], which solubility in water [1] is on record?
Its solubility in water is 1 milligram/ml.

Which “therapeutic outcome in small tumors” value (MDA-MB-231 tumor) does the source give for PG-2′-O— succinyl-paclitaxel [GT] here?
Its value is “delayed response to the treatment”.

What about the “antitumor effect in large tumors” value (MDA-MB-231 tumor) of the same compound?
Its value is “significant antitumor effects”.

For `CC(C)CCC[C@@H](C)[C@H]1CC[C@H]2[C@@H]3CC=C4C[C@@H](O)CC[C@]4(C)[C@H]3CC[C@]12C` [cholesterol], which solubility in water [1] is on record?
Its solubility in water is 10 nanograms/ml.
